Paper PMC4527605 (ACS infectious diseases, 2015)
Values after ≈ are worked out from the molar mass of the structure shown.

How the values were obtained:
M. smegmatis = M. smegmatis growth inhibition; format: cell-based, Mycobacterium smegmatis; conditions: Mycolicibacterium smegmatis, read-out: Ms = M. smegmatis, IC50
M. tuberculosis H37Rv [1] = assay: M. tuberculosis H37Rv growth inhibition; format: cell-based, Mycobacterium tuberculosis; conditions: for MIC: Mycobacterium tuberculosis, H37RV, read-out: Mt = M. tuberculosis H37Rv, MIC, estimated visually from 2x serial dilutions
M. tuberculosis Erdman = M. tuberculosis Erdman growth inhibition; format: cell-based, Mycobacterium tuberculosis; conditions: estimated visually from 2x serial dilutions
[2] = HepG2 cell growth inhibition; format: cell-based; conditions: human, HepG2 cells
S. cerevisiae = S. cerevisiae growth inhibition; format: cell-based; conditions: Saccharomyces cerevisiae, read-out: Sc = S. cerevisiae, IC50
E. coli = E. coli growth inhibition; format: cell-based; conditions: Escherichia coli, read-out: Ec = E. coli, IC50
[3] = HEK293T cell growth inhibition; format: cell-based; conditions: human, HEK293T cells
B. subtilis = B. subtilis growth inhibition; format: cell-based; conditions: Bacillus subtilis, read-out: Bs = B. subtilis, IC50
M. tuberculosis H37Rv [4] = conditions: cited from earlier work
Trypanosoma brucei = assay: T. brucei 427
[5] = tested on: inner mitochondrial membrane potential, Δψ; assay: Mitochondrial membrane potential; format: cell-based, Trypanosoma brucei; conditions: PCF, oligomycin 2 μg/ml, Figure 4C

With CC[C@@H](CO)NCCN[C@@H](CC)CO [compound 1, ethambutol] as the molecule, how does the IC50 (M. smegmatis) read?
Its IC50 is 1 µg/mL (≈ 4.89 µM).

What about the MIC (M. tuberculosis H37Rv [1]) of the same molecule?
The MIC was 2 µg/mL (≈ 9.79 µM).

Which IC50 (M. smegmatis) does the source give for CC(C)=CCC/C(C)=C/CNCCNC1C2CC3CC(C2)CC1C3 (centres unmarked) [compound 2, SQ109] here?
The IC50 was 3.1 µg/mL (≈ 9.38 µM).

And the “MtE = M. tuberculosis Erdman, MIC” value (M. tuberculosis Erdman)?
Its value is 0.50 µg/mL.

And the “MtE = M. tuberculosis Erdman, MIC” value (M. tuberculosis Erdman; listed as SQ109)?
The value was 0.1 to 0.5 µg/mL.

And the CC50 [2]?
The CC50 was 1.2 µg/mL (≈ 3.63 µM).

What about the IC50 (S. cerevisiae) of the same molecule?
The IC50 was 1.1 µg/mL (≈ 3.33 µM).

And the IC50 (E. coli)?
The IC50 was 2.8 µg/mL (≈ 8.47 µM).

And the CC50 [3]?
Its CC50 is 1.9 µg/mL (≈ 5.75 µM).

What about the IC50 (B. subtilis) of the same molecule?
Its IC50 is 7.6 µg/mL (≈ 23 µM).

What about the MIC (M. tuberculosis H37Rv [1]) of the same molecule?
The MIC was 0.1 to 0.5 µg/mL (≈ 0.303 to 1.51 µM).

What about the “Mt = M. tuberculosis H37Rv, MIC” value (M. tuberculosis H37Rv [1]; estimated visually from 2x serial dilutions) of the same molecule?
Its value is 0.15 µg/mL.

And the “MIC against M. tuberculosis (previous work)” value (M. tuberculosis H37Rv [4])?
Its value is 0.15 µg/mL (≈ 0.454 µM).

What about the IC50 (Trypanosoma brucei; Trypanosoma brucei, 72 h, read-out: Tb = Trypanosoma brucei, IC50) of the same molecule?
The IC50 was 0.078 ± 0.001 µg/mL (≈ 0.236 µM).

What about the “SI = CC50(HEK293T)/IC50(Tb)” value (Trypanosoma brucei; selectivity index HEK293T vs T. brucei) of the same molecule?
The value was 24.

And the “SI = CC50(HepG2)/IC50(Tb)” value (Trypanosoma brucei; selectivity index HepG2 vs T. brucei)?
Its value is 15.

For CC[C@H]1/C=C/C=C/C[C@@H](C)[C@H](O)[C@@](C)(O)C(=O)[C@@H](C)[C@H](O)[C@@H](C)C(=O)[C@@H](C)[C@H](O)[C@@H](C)/C=C/C(=O)O[C@@H]2[C@H](C)[C@H](CC1)O[C@]1(CC[C@H](C)[C@H](C[C@@H](C)O)O1)[C@H]2C [oligomycin], which “effect on ADP phosphorylation by T. brucei mitochondria (Δψ decrease after ADP)” value [5] is on record?
Its value is “inhibited”.
